Measurements taken from patent publication US8697390B2, “Method and kit for examination of cells using N-(9-acridinyl) maleimide (NAM) or using 7-diethylamino-3-((4′-iodacetyl)amino)phenyl)-4-methylkcoumarin (CPI)” (ChemoMetec A/S, priority 2008, dated 2014).

Key:
[1] = test system: primary murine splenocytes; assay: NAM/PI staining to determine viability of primary murine splenocytes; type: cell-based, C57BL/6 mouse; conditions: 90% viable, 10 μL NAM (100 μg/mL DMSO) in 90 μL cells
Experimental: The spleen from a C57BL/6 mouse was placed in ice-cold PBS and gently ground using the end of a sterile syringe. The suspension was centrifuged at 300 g for 10 minutes; the pellet was resuspended in 1 mL 0.83% NH4Cl to lyse erythrocytes and incubated for 3 minutes on ice. The cells were then added 14 mL PBS and centrifuged at 300 g for 10 minutes. The splenocytes were resuspended in RPMI (Invitrogen, #61870) supplemented with 10% heat-inactivated fetal bovine serum (Invitrogen, #10108-165), 100 U/mL penicillin and 100 μg/mL streptomycin (Invitrogen, #15140-122). The cell clumps were allowed to sediment and were removed by pipetting, and the resulting single cell suspension was used. 90 μL splenocytes (cell density 1.7×10^6, 90% viable determined using the NC-100 NucleoCounter system following the manufacturer's (ChemoMetec A/S) protocol) were added 10 μL NAM (N-(9-acridinyl)maleimide, Sigma, #01665, CAS no. 49759-20-8) dissolved in DMSO (100 μg NAM pr. mL DMSO) and mixed by pipetting. Cells were loaded into a NucleoCassette, containing the DNA stain propidium iodide (PI). The cells were investigated using an Olympus IX50 fluorescence microscope, and images were captured using a Lumenera CCD camera and in-house developed software. PI and NAM fluorescence were detected using, respectively, U-MWG2 (green long pass: 510-550 nm) and U-MNUA2 (UV band pass, 330-385 nm) filter cubes (Olympus).

S. pombe strain Eg328 = assay: NAM and propidium iodide staining of fission yeast; type: cell-based, Schizosaccharomyces pombe
Experimental: S. pombe strain Eg328, h^90 smt-0 ura4-D18, (ATCC 90720; Styrkarsdottir U et al. Curr. Genet. 23: 184-186, 1993) was grown in a rotary shaker at 29° C. to a density of 1×10^7 cells/ml in EMM minimal medium (Moreno et al., Methods Enzym. 194: 795-823, 1991) supplemented with 10 mM of L-uridine (Sigma, U3750). Cells were collected by centrifuging, washed with sterile water and stained with 10 μg/ml NAM (N-(9-acridinyl)-maleimide, Sigma, #01665) and 10 μg/ml propidium iodide (Applichem, #A2261.9010) prior to mounting on a microscope slide. Olympus IX50 was used for microscopy, and images were captured using a Lumenera CCD camera and in-house developed software. Propidium iodide and NAM fluorescence were detected using, respectively, U-MWG2 and U-MNUA2 filter cubes (Olympus).

MCF-7 cells = assay: Intracellular localization of fluorescent NAM in GFP / H2B-GFP expressing cells; type: cell-based; conditions: 10 μg/ml NAM
From the text: (§1) MCF-7 (ATTC HTB-22) and U2OS (ATTC HTB-96) cells were cultivated in RPMI (Invitrogen, #61870)+10% FCS (Invitrogen, #10108-165). Cells were transfected with, respectively, pEGFP-C1 (Clontech) and pBOS-H2B-GFP (Pharmingen, BD Biosciences) using Lipofectamine 2000 (Invitrogen, #11668-027) according to manufacturer's instructions. Stable cells lines expressing GFP (green fluorescent protein) or H2B-GFP (GFP N-terminally fused to histone H2B) were cultivated in, respectively, T25 flasks and in chamber slides (Nunc) to 75% confluency. Cells from T25 flasks were harvested with 0.5 ml of trypsin (Invitrogen, #25300), neutralized with 5 ml of medium (RPMI+10% FCS), stained with 10 μg/ml NAM (N-(9-acridinyl), maleimide, Sigma, #01665) prior to mounting on a microscope slide. Cells grown on chamber slides were directly stained with 10 μg/ml NAM (N-(9-acridinyl)-maleimide). Olympus IX50 was used for microscopy, and images were captured using a Lumenera CCD camera and in-house developed software. GFP and NAM fluorescence were detected using, respectively, U-MNIB3 and U-MNUA2 filter cubes (Olympus).
(§2) Cells expression GFP or H2B-GFP were used for determining the intracellular localization of fluorescent NAM.

U2OS cells = assay: as above; type: cell-based; conditions: 10 μg/ml NAM
From the text: as §1, §2

[2] = Akasaka et al. 1990; cited from earlier work
Jurkat (JM) cells [3] = assay: NAM/PI staining to determine viability of proliferating Jurkat cells (fluorescence microscopy); type: cell-based; conditions: 99% viable, 10 μL NAM (100 μg/mL DMSO) in 90 μL cells, UV band pass filter
Experimental: (§3) Jurkat (JM) cells were grown at 37° C. in a humidified air atmosphere with 5% CO2 in RPMI (Invitrogen, #61870) supplemented with 10% heat-inactivated fetal bovine serum (Invitrogen, #10108-165). 90 μL proliferating Jurkat cells (cell density 1.2×10^6, 99% viable determined using the NC-100 NucleoCounter system following the manufacturer's (ChemoMetec A/S) protocol) were added 10 μL NAM (N-(9-acridinyl)maleimide, Sigma, #01665, CAS no. 49759-20-8) dissolved in DMSO (100 μg NAM pr. mL DMSO) and mixed by pipetting. Cells were loaded into a NucleoCassette, containing the DNA stain propidium iodide (PI). The cells were investigated using an Olympus IX50 fluorescent microscope, and images were captured using a Lumenera CCD camera and in-house developed software. PI and NAM fluorescence were detected using, respectively, U-MWG2 (green long pass: 510-550 nm) and U-MNUA2 (UV band pass, 330-385 nm) filter cubes (Olympus).

[4] = Excitation spectra of NAM with -SH reagents (spectrofluorophotometer); type: physicochemical
Experimental: The excitation spectra of NAM, glutathione GSH, GSSG and DTT and combinations thereof were obtained using a spectrofluorophotometer (RF-5301 Fluorescence Spectrophotometer, Shimadzu). 10 μL NAM dissolved in DMSO (100 μg/mL) were added to 3 mL distilled water (resulting concentration of NAM; 0.33 μg/mL) in a quartz cuvette and the excitation spectrum was recorded. Likewise were the spectra of NAM (0.33 μg/mL) together with GSH (167 μg/mL), NAM (0.33 μg/mL) together with GSSG (167 μg/mL), NAM together with DTT (167 μg/mL), GSH (167 μg/mL) alone, GSSG (167 μg/mL) alone and DTT (167 μg/mL) alone recorded.

HEK293 cells = assay: NAM/PI staining to determine viability of outgrown HEK293 cells (fluorescence microscopy); type: cell-based, human; conditions: for staining of Triton X-100 treated cells: HEK293 cells treated with 0.25% Triton X-100, then 10 μg/mL NAM, PI from NucleoCassette
Experimental: HEK293 cells were grown at 37° C. in a humidified air atmosphere with 5% CO2 in DMEM (Invitrogen, #31966) supplemented with 10% heat-inactivated fetal bovine serum (Invitrogen, #10108-165). Cells were harvested with 0.5 mL of trypsin (Invitrogen, #25300) and neutralized with 5 mL medium (DMEM+10% FCS) two days after they had reached full confluency. These outgrown HEK293 cells (cell density 1.6×10^6, 78% viable determined using the NC-100 NucleoCounter system following the manufacturer's (ChemoMetec) protocol) were stained with 10 μg/mL NAM (Sigma, #01665). Another cell sample were treated with 0.25% Triton X-100 (Sigma, #T9284) and hereafter added 10 μg/mL NAM. After staining, each cell sample was loaded into a NucleoCassette, containing the DNA stain propidium iodide (PI). The cells were investigated using an Olympus IX50 fluorescent microscope, and images were captured using a Lumenera CCD camera and in-house developed software. PI and NAM fluorescence were detected using, respectively, U-MWG2 (green long pass: 510-550 nm) and U-MNUA2 (UV band pass, 330-385 nm) filter cubes (Olympus).

Drosophila S2 cells = assay: NAM/PI staining to determine viability of Drosophila S2 cells (fluorescence microscopy); type: cell-based, Drosophila melanogaster; conditions: 99% viable, diluted 10 times in PBS, 10 μg/mL NAM
Experimental: (Drosophila melanogaster Schneider line-2 (S2) cells were originally derived from late embryonic stage Drosophila embryos.) Drosophila S2 cells were grown at 28° C. without shaking in Schneider's Drosophila medium (Invitrogen, #21720) supplemented with 10% heat-inactivated fetal bovine serum (Invitrogen, #10108-165). S2 cells (cell density 1.7×10^7, 99% viable determined using the YC-100 NucleoCounter system with diploid settings following the manufacturer's (ChemoMetec) protocol) were diluted 10 times in PBS and stained with 10 μg/mL NAM (Sigma, #01665). Cells were loaded into a NucleoCassette, containing the DNA stain propidium iodide (PI). The cells were investigated using an Olympus IX50 fluorescent microscope, and images were captured using a Lumenera CCD camera and in-house developed software. PI and NAM fluorescence were detected using, respectively, U-MWG2 (green long pass: 510-550 nm) and U-MNUA2 (UV band pass, 330-385 nm) filter cubes (Olympus).

bone marrow cells = assay: NAM/PI staining to determine viability of bone marrow derived cells; type: cell-based, murine; conditions: 93% viable, 10 μL NAM (100 μg/mL DMSO) in 90 μL cells
Experimental: The bone marrow cells were harvested aseptically in the laminar flow hood. Briefly, bilateral tibia and femur were aseptically removed, freed of surrounding soft tissue, and placed in a petri dish with 10 mL 70% ethanol. After 2 minutes they were transferred to ice cold PBS. The bone marrow cavity was then flushed with 5 ml cold PBS using a 5-ml syringe with a 27-gauge needle attached, and the cells were collected from each bone. The cells were centrifuged at 300 g for 10 min, the supernatant was discarded, and cells were washed twice. After the second wash the cell pellet was resuspended in RPMI 1640 (Invitrogen, #61870) supplemented with 10% heat-inactivated fetal bovine serum (Invitrogen, #10108-165), 100 U/mL penicillin and 100 μg/mL streptomycin (Invitrogen, #15140-122). 90 μL bone marrow cells (cell density 1.7×10^6, 93% viable determined using the NC-100 NucleoCounter system following the manufacturer's (ChemoMetec A/S) protocol) were added 10 μL NAM (N-(9-acridinyl)maleimide, Sigma, #01665, CAS no. 49759-20-8) dissolved in DMSO (100 μg NAM pr. mL DMSO) and mixed by pipetting. Cells were loaded into a NucleoCassette, containing the DNA stain propidium iodide (PI). […] PI and NAM fluorescence were detected using, respectively, U-MWG2 (green long pass: 510-550 nm) and U-MNUA2 (UV band pass, 330-385 nm) filter cubes (Olympus).

Jurkat (JM) cells [5] = assay: CPI/PI staining as marker of cell viability in proliferating Jurkat cells; type: cell-based; conditions: 98% viable, 10 μL CPI (100 μg/mL DMSO) in 90 μL cells
Experimental: as §3, with “1.1×10^6, 98%” for “1.2×10^6, 99%”, “(ChemoMetec)” for “(ChemoMetec A/S)”, “CPI (7-diethylamino-3-((4′-(iodoacetyl)amino)phenyl)-4-methylcoumarin, Sigma 78264” for “NAM (N-(9-acridinyl)maleimide, Sigma, #01665,”, “76877-34-4)” for “49759-20-8)”, “CPI” for “NAM”

| Structure (SMILES) | staining of cells by NAM versus PI [1] | intracellular localization of NAM in yeast cells (S. pombe strain Eg328; 10 μg/ml NAM) | staining of living and dead yeast cells by NAM (S. pombe strain Eg328; 10 μg/ml NAM and 10 μg/ml propidium iodide) | intracellular localization of fluorescent NAM (MCF-7 cells; GFP-expressing cell lines) | intracellular localization of fluorescent NAM (MCF-7 cells; H2B-GFP-expressing cells) | intracellular localization of fluorescent NAM (U2OS cells; GFP-expressing cell lines) | intracellular localization of fluorescent NAM (U2OS cells; H2B-GFP-expressing cells) | fluorescence of NAM upon reaction with sulfite [2] | staining of cells by NAM versus PI (Jurkat (JM) cells [3]) | fluorescence of NAM alone ([4]; NAM 0.33 μg/mL in distilled water, no thiol) | fluorescence on mixing NAM with GSH ([4]; NAM 0.33 μg/mL, GSH 167 μg/mL) | fluorescence on mixing NAM with DTT ([4]; NAM with DTT 167 μg/mL) | staining of Triton X-100 treated cells (HEK293 cells) | staining of cells by NAM versus PI (HEK293 cells; outgrown HEK293 cells, 78% viable, 10 μg/mL NAM) | staining of cells by NAM versus PI (Drosophila S2 cells) | staining of cells by NAM versus PI (bone marrow cells) | staining of cells by CPI versus PI (Jurkat (JM) cells [5]) |
| --- | --- | --- | --- | --- | --- | --- | --- | --- | --- | --- | --- | --- | --- | --- | --- | --- | --- |
| O=C1C=CC(=O)N1c1c2ccccc2nc2ccccc12 [NAM, N-(9-acridinyl)maleimide] | nearly all the primary spleen cells were stained by NAM; only exception were PI positive cells | localizes to both the nucleus and cytosol | NAM stains both living and dead yeast cells | found in both the nucleus and cytosol | found outside as well as inside the nucleus | found in both the nucleus and cytosol | found outside as well as inside the nucleus | fluoresces strongly | nearly all cells in the proliferating Jurkat cell culture were stained by NAM; only exception were PI positive cells | only exhibited very weak fluorescence | strong synergistic effect with respect to fluorescence | strong synergistic effect with respect to fluorescence | NAM negative | NAM and PI were found to complementary stain the outgrown HEK293 cells | NAM and PI were found to complementary stain S2 cells | nearly all the primary bone marrow cells were stained by NAM; again only exception were PI positive cells | – |
| CC[N+](C)(CC)CCC[n+]1c(-c2ccccc2)c2cc(N)ccc2c2ccc(N)cc21.[I-].[I-] [PI, propidium iodide] | – | – | – | – | – | – | – | – | – | – | – | – | PI positive | – | – | – | – |
| CCN(CC)c1ccc2c(C)c(-c3ccc(NC(=O)CI)cc3)c(=O)oc2c1 [CPI, 7-diethylamino-3-((4′-(iodoacetyl)amino)phenyl)-4-methylcoumarin] | – | – | – | – | – | – | – | – | – | – | – | – | – | – | – | – | nearly all cells were stained by CPI |
